Reference: ChEMBL document CHEMBL1201862, “PubChem BioAssay data set” (2004)
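Five compound concentrations were applied to cells in 96-well plates for 48 hours; endpoints were derived by simple linear interpolation of the resulting dose-response curve. GI50 is the concentration that inhibits growth by half.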 The source made the active and inactive calls. No stated cut-off is given here; in the data, active = GI50 up to about 1.1 µM and inactive = higher.

How the values were obtained:
Assay in all cases: growth of human tumour cells (NCI), 48 h
KM12 = system: KM12
A498 = system: A498
RPMI-8226 = system: RPMI-8226
T47D = system: T47D
HCC 2998 = system: HCC 2998
COLO 205 = system: COLO 205
A549 = system: A549
SR = system: SR
HOP-62 = system: HOP-62
PC-3 = system: PC-3
SNB-75 = system: SNB-75
MDA-MB-435 = system: MDA-MB-435
SN12C = system: SN12C
NCI-H226 = system: NCI-H226
UO-31 = system: UO-31
NCI-H460 = system: NCI-H460
U-251 = system: U-251
OVCAR-4 = system: OVCAR-4
SW-620 = system: SW-620
MDA-N = system: MDA-N
CCRF-CEM = system: CCRF-CEM
MOLT-4 = system: MOLT-4
MDA-MB-231 = system: MDA-MB-231
SF-295 = system: SF-295
SK-MEL-28 = system: SK-MEL-28
SK-MEL-2 = system: SK-MEL-2
LOX IMVI = system: LOX IMVI
NCI/ADR-RES = system: NCI/ADR-RES
786-0 = system: 786-0
HCT-116 = system: HCT-116
CAKI-1 = system: CAKI-1
OVCAR-3 = system: OVCAR-3
HOP-92 = system: HOP-92
TK-10 = system: TK-10
NCI-H23 = system: NCI-H23
HCT-15 = system: HCT-15
ACHN = system: ACHN
Hs-578T = system: Hs-578T
DU-145 = system: DU-145
SF-268 = system: SF-268
BT-549 = system: BT-549
SK-OV-3 = system: SK-OV-3
HT-29 = system: HT-29
UACC-257 = system: UACC-257
SNB-19 = system: SNB-19
K562 = system: K562
UACC-62 = system: UACC-62
SK-MEL-5 = system: SK-MEL-5
HL-60 = system: HL-60
NCI-H522 = system: NCI-H522
MCF7 = system: MCF7
Malme-3M = system: Malme-3M
OVCAR-5 = system: OVCAR-5
RXF 393 = system: RXF 393
OVCAR-8 = system: OVCAR-8
SF-539 = system: SF-539
EKVX = system: EKVX
M14 = system: M14
IGROV-1 = system: IGROV-1

Measured: GI50

COc1cc(C2(O)c3ccccc3C3=NCCN32)cc(OC)c1OC (stereo not drawn)
inactive: KM12 > 100 µM | A498 > 100 µM | RPMI-8226 > 100 µM | T47D > 100 µM | HCC 2998 > 100 µM | COLO 205 > 100 µM | A549 > 100 µM | SR 64.3 µM | HOP-62 > 100 µM | PC-3 > 100 µM | SNB-75 > 100 µM | MDA-MB-435 > 100 µM | SN12C > 100 µM | NCI-H226 73.3 µM | UO-31 > 100 µM | NCI-H460 > 100 µM | U-251 > 100 µM | OVCAR-4 > 100 µM | SW-620 > 100 µM | MDA-N > 100 µM | CCRF-CEM > 100 µM | MOLT-4 30.3 µM | MDA-MB-231 > 100 µM | SF-295 > 100 µM | SK-MEL-28 > 100 µM | SK-MEL-2 > 100 µM | LOX IMVI > 100 µM | NCI/ADR-RES > 100 µM | 786-0 > 100 µM | HCT-116 > 100 µM | CAKI-1 > 100 µM | OVCAR-3 > 100 µM | HOP-92 > 100 µM | TK-10 > 100 µM | NCI-H23 > 100 µM | ACHN > 100 µM | Hs-578T > 100 µM | DU-145 > 100 µM | SF-268 > 100 µM | BT-549 > 100 µM | SK-OV-3 > 100 µM | HT-29 > 100 µM | UACC-257 > 100 µM | SNB-19 79.4 µM | K562 > 100 µM | UACC-62 > 100 µM | SK-MEL-5 > 100 µM | HL-60 > 100 µM
> 100 µM: HCT-15

O=C1CCCCCCCCCCC1CN(Cc1ccccc1)Cc1ccccc1 (stereo not drawn)
56.5 µM: HCT-15
inactive: KM12 83.9 µM | NCI-H522 41.3 µM | RPMI-8226 22.2 µM | MCF7 23.7 µM | T47D 19.1 µM | HCC 2998 28.8 µM | COLO 205 > 100 µM | A549 40.7 µM | SR 35.5 µM | HOP-62 > 100 µM | PC-3 30.9 µM | SNB-75 2.84 µM | MDA-MB-435 37.1 µM | Malme-3M 29.4 µM | SN12C > 100 µM | NCI-H226 51.3 µM | UO-31 48.5 µM | OVCAR-5 > 100 µM | RXF 393 15.4 µM | U-251 18.8 µM | OVCAR-4 > 100 µM | SW-620 45.6 µM | OVCAR-8 75.3 µM | SF-539 45.2 µM | MDA-N 40.1 µM | CCRF-CEM 19.9 µM | MOLT-4 17.3 µM | MDA-MB-231 77.6 µM | SF-295 32.6 µM | SK-MEL-28 37.7 µM | EKVX 36.1 µM | LOX IMVI 22.9 µM | 786-0 42.6 µM | HCT-116 17.3 µM | OVCAR-3 44.5 µM | HOP-92 78.2 µM | M14 48 µM | IGROV-1 > 100 µM | TK-10 > 100 µM | NCI-H23 32.2 µM | ACHN 30 µM | Hs-578T 22.4 µM | DU-145 59 µM | SF-268 40 µM | BT-549 50.7 µM | SK-OV-3 54 µM | UACC-257 32.2 µM | SNB-19 34.9 µM | K562 36.3 µM | UACC-62 13.7 µM | SK-MEL-5 13.1 µM | HL-60 23.9 µM

CC(=O)/C=C1\Nc2ccccc2N\C1=C/C(C)=O
24.3 µM: HCT-15
inactive: KM12 24 µM | NCI-H522 11.1 µM | A498 27.2 µM | RPMI-8226 19.5 µM | T47D 19.5 µM | COLO 205 23.2 µM | A549 21.5 µM | SR 25.1 µM | HOP-62 27.3 µM | PC-3 37.9 µM | SNB-75 26.9 µM | MDA-MB-435 26.4 µM | Malme-3M 23 µM | SN12C 25.7 µM | NCI-H226 21.4 µM | UO-31 36.6 µM | OVCAR-5 28.8 µM | NCI-H460 16.5 µM | RXF 393 19.1 µM | U-251 23.8 µM | OVCAR-4 19 µM | SW-620 35.7 µM | OVCAR-8 24.7 µM | SF-539 30.3 µM | MDA-N 29.9 µM | CCRF-CEM 17.2 µM | MOLT-4 14.5 µM | MDA-MB-231 22 µM | SF-295 26.5 µM | SK-MEL-28 41.7 µM | SK-MEL-2 20.6 µM | EKVX 27.5 µM | LOX IMVI 24.5 µM | NCI/ADR-RES 29 µM | 786-0 18.5 µM | HCT-116 16.9 µM | CAKI-1 60.8 µM | OVCAR-3 17.5 µM | HOP-92 24.4 µM | M14 21.6 µM | IGROV-1 18.8 µM | TK-10 19.4 µM | NCI-H23 31.2 µM | ACHN 22.6 µM | Hs-578T 29.9 µM | DU-145 30 µM | SF-268 23.5 µM | BT-549 35 µM | SK-OV-3 30.6 µM | HT-29 20.1 µM | UACC-257 20.3 µM | SNB-19 38.5 µM | K562 26.6 µM | UACC-62 20.1 µM | SK-MEL-5 16.8 µM | HL-60 23.9 µM

O=C1NC(=O)c2ccccc2/C1=C/c1ccc2c(c1)OCO2
15.6 µM: HCT-15
inactive: KM12 17 µM | NCI-H522 31.3 µM | A498 > 100 µM | RPMI-8226 19.3 µM | MCF7 20 µM | T47D > 100 µM | HCC 2998 14.6 µM | COLO 205 > 10 µM | A549 34 µM | SR 36 µM | HOP-62 11.2 µM | SNB-75 28.1 µM | MDA-MB-435 18.4 µM | Malme-3M 31.3 µM | SN12C 19.9 µM | NCI-H226 27.9 µM | UO-31 17.2 µM | OVCAR-5 29.2 µM | RXF 393 3.29 µM | OVCAR-4 49.1 µM | SW-620 30.5 µM | OVCAR-8 28 µM | SF-539 21.5 µM | MDA-N 26 µM | CCRF-CEM 5.92 µM | MOLT-4 11.5 µM | MDA-MB-231 12.3 µM | SF-295 24.5 µM | SK-MEL-2 24.6 µM | EKVX 51.1 µM | LOX IMVI 20.9 µM | NCI/ADR-RES 17.9 µM | 786-0 8.02 µM | HCT-116 5 µM | CAKI-1 24.5 µM | OVCAR-3 5.37 µM | HOP-92 27.1 µM | M14 24 µM | IGROV-1 23.7 µM | TK-10 55.7 µM | NCI-H23 22.3 µM | ACHN 15.8 µM | Hs-578T 10.4 µM | DU-145 40.3 µM | SF-268 21.8 µM | BT-549 20.9 µM | SK-OV-3 27.3 µM | HT-29 20.8 µM | UACC-257 21.4 µM | SNB-19 32 µM | UACC-62 22.1 µM | SK-MEL-5 15.1 µM | HL-60 2.72 µM
